# Laboratory results taken from PubChem BioAssay AID256 (DTP/NCI, 2004).
# Where “and” joins values, the source holds several entries; their conditions need not be identical. Identical values can stand only once. Toxic doses and inconclusive results are not listed.
# Tested on: CD2F1 mice, L1210 leukemia ip, survival T/C
# Assay: NCI In Vivo Anticancer Drug Screen. Data for tumor model L1210 Leukemia (intraperitoneal) in CD2F1 (CDF1) mice
# Conditions: endpoint: mean survival time, higher = longer survival
# Procedure, shortened: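 In this screen, transplantable tumors were grown in mice given either the compound or its vehicle. Results were expressed as the treated measurement relative to the control measurement.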
# [1] = dose: 100.0 mg/kg/injection, schedule: Q01DX009 (ip), vehicle: other
# [2] = dose: 100.0 mg/kg/injection, schedule: Q01DX009 (ip), vehicle: saline with Tween-80
# [3] = dose: 200.0 mg/kg/injection, schedule: Q01DX009 (ip), vehicle: other
# [4] = dose: 200.0 mg/kg/injection, schedule: Q01DX009 (ip), vehicle: saline with Tween-80
# [5] = dose: 400.0 mg/kg/injection, schedule: Q01DX009 (ip), vehicle: other
# [6] = dose: 100.0 mg/kg/injection, schedule: Q04DX003 (ip), vehicle: saline with Tween-80
# [7] = dose: 200.0 mg/kg/injection, schedule: Q04DX003 (ip), vehicle: saline with Tween-80
# [8] = dose: 400.0 mg/kg/injection, schedule: Q04DX003 (ip), vehicle: saline with Tween-80
smiles,measurement,setting,value
CC(O)(CCc1ccccc1)CC(O)(C(F)(F)F)C(F)(F)F (stereo not drawn),T/C,[1],96 % of control
same,T/C,[2],97 % of control
same,T/C,[3],102 % of control
same,T/C,[4],102 % of control
same,T/C,[5],98 % of control
same,T/C,"dose: 400.0 mg/kg/injection, schedule: Q01DX009 (ip), vehicle: saline with Tween-80",108 % of control
O=C1NC(=O)C2(CCc3ccc(N(CCCl)CCCl)cc32)N1 (stereo not drawn),T/C,"dose: 6.25 mg/kg/injection, schedule: Q01DX009 (ip), vehicle: Klucel (hydroxypropylcellulose) (HPC)",117 % of control
same,T/C,"dose: 6.25 mg/kg/injection, schedule: Q01DX009 (oral), vehicle: saline with Tween-80",96 % of control and 97 % of control
same,T/C,"dose: 12.5 mg/kg/injection, schedule: Q01DX009 (oral), vehicle: saline with Tween-80",100 % of control and 105 % of control
same,T/C,"dose: 25.0 mg/kg/injection, schedule: Q01DX009 (ip), vehicle: Klucel (hydroxypropylcellulose) (HPC)",154 % of control and 157 % of control
same,T/C,"dose: 25.0 mg/kg/injection, schedule: Q01DX009 (oral), vehicle: saline with Tween-80",102 % of control and 104 % of control
same,T/C,"dose: 50.0 mg/kg/injection, schedule: Q01DX009 (ip), vehicle: Klucel (hydroxypropylcellulose) (HPC)",122 % of control and 103 % of control
same,T/C,"dose: 50.0 mg/kg/injection, schedule: Q01DX009 (oral), vehicle: saline with Tween-80",100 % of control and 104 % of control
same,T/C,"dose: 100.0 mg/kg/injection, schedule: Q01DX009 (ip), vehicle: Klucel (hydroxypropylcellulose) (HPC)",97 % of control
same,T/C,"dose: 100.0 mg/kg/injection, schedule: Q01DX009 (oral), vehicle: saline with Tween-80",107 % of control and 109 % of control
same,T/C,"dose: 200.0 mg/kg/injection, schedule: Q01DX009 (oral), vehicle: saline with Tween-80",106 % of control and 110 % of control
CC(=O)N(C(C)=O)c1nc(Br)c2ccccc2c1-c1ccc([N+](=O)[O-])cc1,T/C,"dose: 50.0 mg/kg/injection, schedule: Q04DX003 (ip), vehicle: other",100 % of control
same,T/C,"dose: 100.0 mg/kg/injection, schedule: Q04DX003 (ip), vehicle: other",94 % of control
same,T/C,"dose: 200.0 mg/kg/injection, schedule: Q04DX003 (ip), vehicle: other",94 % of control
same,T/C,"dose: 400.0 mg/kg/injection, schedule: Q04DX003 (ip), vehicle: other",88 % of control
CNC(=O)NCc1ccc(C(=O)NC(C)C)cc1,T/C,"dose: 50.0 mg/kg/injection, schedule: Q01DX009 (ip), vehicle: other",100 % of control
same,T/C,[1],101 % of control
same,T/C,[3],100 % of control
same,T/C,[5],89 % of control
C=C(c1ccccc1)c1ccc(F)cc1,T/C,"dose: 100.0 mg/kg/injection, schedule: Q01DX009 (ip), vehicle: saline sonified",102 % of control
same,T/C,[6],100 % of control
same,T/C,"dose: 200.0 mg/kg/injection, schedule: Q01DX009 (ip), vehicle: saline sonified",97 % of control
same,T/C,[7],100 % of control
same,T/C,"dose: 400.0 mg/kg/injection, schedule: Q01DX009 (ip), vehicle: saline sonified",103 % of control
same,T/C,[8],102 % of control
CC(O)C(NC(=O)OC(C)(C)C)C(=O)ON1C(=O)CCC1=O (stereo not drawn),T/C,"dose: 25.0 mg/kg/injection, schedule: Q01DX009 (ip), vehicle: saline with Tween-80",92 % of control
same,T/C,"dose: 50.0 mg/kg/injection, schedule: Q01DX009 (ip), vehicle: saline with Tween-80",94 % of control
same,T/C,[2],96 % of control and 98 % of control
NC(=O)OCC(O)C(O)C(N)C(=O)NC(C(=O)O)C1OC(n2ccc(=O)[nH]c2=O)C(O)C1O (stereo not drawn),T/C,"dose: 12.5 mg/kg/injection, schedule: Q01DX005 (ip), vehicle: water",96 % of control
same,T/C,"dose: 25.0 mg/kg/injection, schedule: Q01DX005 (ip), vehicle: water",103 % of control
same,T/C,"dose: 50.0 mg/kg/injection, schedule: Q01DX005 (ip), vehicle: water",98 % of control
same,T/C,"dose: 100.0 mg/kg/injection, schedule: Q01DX005 (ip), vehicle: water",101 % of control
same,T/C,"dose: 200.0 mg/kg/injection, schedule: Q01DX005 (ip), vehicle: water",94 % of control
CCOC(CN(N=O)c1ccccc1C(C)C)OCC,T/C,[2],98 % of control
same,T/C,[6],103 % of control
same,T/C,[4],93 % of control
same,T/C,[7],98 % of control
same,T/C,[8],97 % of control
O=Cc1cc(=O)[nH]c2ccccc12,T/C,[6],96 % of control
same,T/C,[7],98 % of control
same,T/C,[8],100 % of control
O=C(CC(CC(=O)C(c1ccccc1)c1ccccc1)c1ccccc1)C(c1ccccc1)c1ccccc1,T/C,"dose: 12.5 mg/kg/injection, schedule: Q04DX002 (ip), vehicle: saline with Tween-80",93 % of control
same,T/C,"dose: 25.0 mg/kg/injection, schedule: Q04DX002 (ip), vehicle: saline with Tween-80",90 % of control
same,T/C,[7],86 % of control
same,T/C,[8],86 % of control
CSC(N)=Nc1ccc(C(=O)O)cc1,T/C,[6],100 % of control
same,T/C,[7],94 % of control
same,T/C,[8],94 % of control
